Experimental data reported in the NIST ThermoML archive (doi:10.1021/je0604378).
± gives the expanded uncertainty stated by the source.

Conditions: Liquid; for speed of sound: Pulse-echo method; for mass density: 101.33 kPa

CCCCCCCCCCO [decan-1-ol]
Conditions | speed of sound [m/s]
292.86 K, 60790 kPa | 1646.3 ± 2.2
292.9 K, 30390 kPa | 1533.8 ± 1.8
292.91 K, 15200 kPa | 1470.6 ± 1.7
292.96 K, 45590 kPa | 1592 ± 1.9
293.1 K, 100 kPa | 1397.2 ± 1.5
297.95 K, 15200 kPa | 1453.8 ± 1.7
297.95 K, 66240 kPa | 1649.8 ± 2.2
297.96 K, 30390 kPa | 1518 ± 1.8
297.96 K, 60790 kPa | 1631.4 ± 2.2
297.96 K, 69300 kPa | 1660 ± 2.2
297.98 K, 45590 kPa | 1576.8 ± 1.9
297.99 K, 71850 kPa | 1668.2 ± 2.2
297.99 K, 73520 kPa | 1673.6 ± 2.2
297.99 K, 74700 kPa | 1677.6 ± 2.2
298 K, 75990 kPa | 1681.7 ± 2.2
298.07 K, 100 kPa | 1380 ± 1.5
302.92 K, 15200 kPa | 1436.8 ± 1.7
303.02 K, 60790 kPa | 1617 ± 2.1
303.03 K, 66240 kPa | 1635.7 ± 2.2
303.03 K, 71560 kPa | 1653.5 ± 2.2
303.04 K, 100 kPa | 1362.8 ± 1.5
303.04 K, 73600 kPa | 1660.2 ± 2.2
303.05 K, 69230 kPa | 1645.7 ± 2.2
303.08 K, 30390 kPa | 1501.5 ± 1.8
303.09 K, 75990 kPa | 1667.8 ± 2.2
303.11 K, 45590 kPa | 1561 ± 1.8
303.15 K, 74790 kPa | 1664.1 ± 2.2
307.92 K, 75990 kPa | 1655.1 ± 2.2
307.93 K, 74720 kPa | 1650.9 ± 2.2
307.94 K, 73310 kPa | 1646.2 ± 2.2
307.95 K, 65860 kPa | 1620.9 ± 2.2
307.96 K, 60790 kPa | 1603.1 ± 2.1
307.96 K, 68850 kPa | 1631.3 ± 2.2
307.96 K, 71380 kPa | 1639.8 ± 2.2
307.97 K, 30390 kPa | 1486.6 ± 1.8
307.98 K, 45590 kPa | 1546.9 ± 1.8
308.04 K, 100 kPa | 1345.8 ± 1.5
308.09 K, 15200 kPa | 1420 ± 1.7
313 K, 60790 kPa | 1589.4 ± 2.1
313 K, 65980 kPa | 1607.8 ± 2.1
313 K, 69200 kPa | 1618.9 ± 2.2
313.01 K, 100 kPa | 1329 ± 1.5
313.01 K, 45590 kPa | 1532.5 ± 1.8
313.03 K, 30390 kPa | 1471.9 ± 1.8
313.03 K, 72900 kPa | 1631.5 ± 2.2
313.04 K, 75990 kPa | 1641.7 ± 2.2
313.06 K, 15200 kPa | 1404.5 ± 1.7
318.18 K, 100 kPa | 1311.7 ± 1.4
318.36 K, 15200 kPa | 1387.7 ± 1.7
318.4 K, 65950 kPa | 1593.7 ± 2.1
318.41 K, 60790 kPa | 1575.1 ± 2.1
318.43 K, 72660 kPa | 1617 ± 2.2
318.43 K, 73870 kPa | 1621.1 ± 2.2
318.43 K, 75990 kPa | 1628.2 ± 2.2
318.44 K, 30390 kPa | 1456 ± 1.8
318.44 K, 45590 kPa | 1517.7 ± 1.8
318.45 K, 30390 kPa | 1455.9 ± 1.8

Conditions | mass density [kg/m3]
293.15 K | 829.758 ± 0.93
298.15 K | 826.37 ± 0.94
303.15 K | 822.95 ± 0.95
308.15 K | 819.57 ± 0.96
313.15 K | 816.12 ± 0.97
318.15 K | 812.634 ± 0.98

CCCCCCCO [heptan-1-ol]
Conditions | speed of sound [m/s]
292.76 K, 75990 kPa | 1654.2 ± 2.2
292.77 K, 30390 kPa | 1487.3 ± 1.8
292.77 K, 45590 kPa | 1546.9 ± 1.8
292.77 K, 60790 kPa | 1602.6 ± 2.1
292.77 K, 91180 kPa | 1702 ± 2.3
292.77 K, 101320 kPa | 1732.7 ± 2.3
292.78 K, 15200 kPa | 1421.7 ± 1.7
292.89 K, 100 kPa | 1345.4 ± 1.5
298.06 K, 15200 kPa | 1404.9 ± 1.7
298.06 K, 30390 kPa | 1471.8 ± 1.8
298.06 K, 45590 kPa | 1532.3 ± 1.8
298.06 K, 60790 kPa | 1588.2 ± 2.1
298.06 K, 75990 kPa | 1640.4 ± 2.2
298.06 K, 91180 kPa | 1688.9 ± 2.3
298.06 K, 101320 kPa | 1719.6 ± 2.3
298.17 K, 100 kPa | 1327.2 ± 1.5
302.94 K, 15200 kPa | 1389.5 ± 1.7
302.94 K, 30390 kPa | 1457.3 ± 1.7
302.94 K, 45590 kPa | 1518.7 ± 1.8
302.94 K, 60790 kPa | 1575.3 ± 2.1
302.94 K, 91180 kPa | 1677 ± 2.3
302.94 K, 101320 kPa | 1708 ± 2.3
302.95 K, 75990 kPa | 1628 ± 2.2
303.14 K, 100 kPa | 1310.2 ± 1.4
307.93 K, 60790 kPa | 1561.9 ± 2.1
307.93 K, 91180 kPa | 1664.8 ± 2.3
307.94 K, 15200 kPa | 1374 ± 1.7
307.94 K, 30390 kPa | 1442.8 ± 1.7
307.94 K, 45590 kPa | 1505 ± 1.8
307.94 K, 75990 kPa | 1615.5 ± 2.2
307.94 K, 101320 kPa | 1696 ± 2.3
308.12 K, 100 kPa | 1293.2 ± 1.4
312.9 K, 30390 kPa | 1428.7 ± 1.7
312.9 K, 45590 kPa | 1491.6 ± 1.8
312.9 K, 60790 kPa | 1549.1 ± 2.1
312.9 K, 75990 kPa | 1603.1 ± 2.2
312.9 K, 91180 kPa | 1653 ± 2.3
312.91 K, 15200 kPa | 1358.9 ± 1.6
312.91 K, 101320 kPa | 1684.7 ± 2.3
313.09 K, 100 kPa | 1276.3 ± 1.4
318.29 K, 30390 kPa | 1413.6 ± 1.7
318.29 K, 45590 kPa | 1477.5 ± 1.8
318.29 K, 60790 kPa | 1535.5 ± 2.1
318.29 K, 75990 kPa | 1590 ± 2.2
318.29 K, 91180 kPa | 1640.6 ± 2.2
318.29 K, 101320 kPa | 1672.4 ± 2.3
318.3 K, 15200 kPa | 1342.8 ± 1.6
318.37 K, 100 kPa | 1258.6 ± 1.4

Conditions | mass density [kg/m3]
293.15 K | 822.297 ± 0.95
298.15 K | 818.796 ± 0.96
303.15 K | 815.269 ± 0.97
308.15 K | 811.724 ± 0.98
313.15 K | 808.158 ± 0.99
318.15 K | 804.546 ± 1
